Patent publication US20070112018A1, “Treatment of peripheral arterial occlusive disease” (priority 2005, published 2007)

Key:
[1] = Non-clinical oral pharmacokinetics in the beagle dog; assay type: in vivo
Method: (§1) In rats and dogs, the Vdβ/F following oral administration was 40-80 L/kg. […] The highest mean Cmax observed was in the wall of the GI tract and occurred approximately 1 hour post-dose. […] A large tissue compartment of rifalazil is considered important for efficacy against Chlamydia given the intracellular nature of Chlamydia infection.

[2] = Phase 1 Study ABI-1648-006, multiple oral dose pharmacokinetics; details: for Tmax / AUC / Cmax / half-life: human, plasma; for AUC0-Tau/Dose Mean / Cmax/Dose Mean: normalized to 1 mg/kg
Method: Study ABI-1648-006 was conducted to evaluate the PK of single and multiple oral doses of 2.5, 5, 12.5, and 25 mg administered to healthy male and female volunteers.

[3] = Single 25-mg dose under three food conditions in healthy male adults, adverse events; assay type: in vivo, human
Method: In another study, a single 25-mg oral dose of rifalazil was administered to healthy male adults under one of three distinct food conditions: a high fat meal (60% fat), standard meal (30% fat), and under fasting conditions. No placebo-control was used in this study. Twelve subjects were enrolled, 10 of whom received all doses of rifalazil. Although high fat meal conditions result in higher plasma levels of rifalazil, the incidence of AEs was similar across all food conditions. A total of 83% of subjects (10/12) experienced treatment-emergent AEs, all of mild to moderate intensity. Fifty-eight percent were considered by the investigator to be drug-related. The most common reported drug-related AEs were back pain (25%) and headache (17%), and these were reported only in subjects under fed conditions. All other study medication-related AEs were reported by one subject (8%) only.

[4] = Phase 1 Study ABI-1648-009, food effect on PK of single 25-mg oral dose
[5] = Phase 1 single-dose study (2.5, 5, 12.5, 25 mg), adverse events; assay type: in vivo, human
Method: Several Phase 1 studies of rifalazil administration have been carried out using 25 mg single doses. In one such study, sixteen patients received single doses of 25 mg. Overall, 75% of patients (12/16) reported treatment-emergent adverse events (AEs). […] However, for all dose groups, the incidence of AEs was higher for females than for males, and this difference was also observed in the placebo group. At 25 mg, […] of females (31/39) and 55% of males (16/29) reported treatment-emergent AEs. The AEs with an incidence greater than or equal to 10% were: […]

[6] = Non-clinical oral pharmacokinetics in the rat; assay type: in vivo; details: for bioavailability: rat, plasma, po
Method: as §1

[7] = Tissue concentrations after multiple oral doses in the monkey; assay type: in vivo
Method: as §1

Chlamydia = experiment: Phase 2 study in men with non-gonococcal urethritis, eradication of Chlamydia; assay type: in vivo, human
Excerpt: The use of rifalazil in the treatment of PAOD is supported by both preclinical and clinical lines of evidence.
Due to the recalcitrant response of C. pneumoniae to antibiotic therapy, the duration of therapy is thought to be an important parameter for optimizing treatment. Previous large well-controlled randomized studies have tested long term antibiotic therapy in the CHD population. A longer term treatment schedule with rifalazil than was utilized in eradicating C. trachomatis in NGU (single dose) may represent a preferred therapeutic regimen for producing a clinically beneficial effect on C. pneumoniae in patients with PAOD. Further, dosing of PAOD patients with rifalazil for a duration of 8 weeks may further optimize therapeutic effect against C. pneumoniae in these patients. Chlamydia pneumoniae infects the vasculature, and to elicit significant antibacterial activity against this pathogen, longer courses of treatment than those directed at C. trachomatis (i.e., single dose) are preferred. Pharmacokinetic and pharmacodynamic modeling predict that this dosage will provide continuous plasma and tissue concentrations of rifalazil above the MIC90 for C. pneumoniae for over 9 weeks. A single dose of 25 mg rifalazil administered once per week for up to 4 weeks was not associated with significant adverse effects in Phase 1 studies. […]

[8] = human, in vivo
Method: In another study, three dose levels of rifalazil were administered for the treatment of non-gonococcal urethritis in 170 male patients. Doses used were in this study were single-doses of 2.5, 12.5 mg and 25 mg. Males were between 18-45 years of age with signs or symptoms of urethritis, including urethral discharge.

CO[C@H]1/C=C/O[C@@]2(C)Oc3c(C)c(O)c4c(=O)c(c5oc6cc(N7CCN(CC(C)C)CC7)cc(O)c6nc-5c4c3C2=O)NC(=O)/C(C)=C\C=C\[C@H](C)[C@H](O)[C@@H](C)[C@@H](O)[C@@H](C)[C@H](OC(C)=O)[C@@H]1C [rifalazil, 3′-hydroxy-5′-(4-isobutyl-1-piperazinyl) benzoxazinorifamycin]
Vdβ/F ([1]; dogs, oral administration): 40 to 80 L/kg | bioavailability ([1]; plasma, po, beagle dog, 10 mg/kg): 16 to 17% | Tmax ([2]; both, po): 4 to 6.3 h | AUC ([2]; female, oral, 2.5 mg): 0.0982 µg·h/mL | Cmax ([2]; female, oral, 2.5 mg): 0.007 µg/mL | Tmax ([2]; female, oral, 2.5 mg): 4.3 h | half-life ([2]; female, oral, 2.5 mg): 140 h | AUC ([2]; female, oral, 5 mg): 0.197 µg·h/mL | Cmax ([2]; female, oral, 5 mg): 0.0143 µg/mL | Tmax ([2]; female, oral, 5 mg): 5.3 h | half-life ([2]; female, oral, 5 mg): 174 h | AUC ([2]; female, oral, 12.5 mg): 0.339 µg·h/mL | Cmax ([2]; female, oral, 12.5 mg): 0.0191 µg/mL | Tmax ([2]; female, oral, 12.5 mg): 6.3 h | half-life ([2]; female, oral, 12.5 mg): 86.5 h | half-life ([2]; female, po): 86 to 140 h | AUC0-Tau/Dose Mean ([2]; females, 2.5 mg QD × 5 days): 2540.1 | Cmax/Dose Mean ([2]; females, 2.5 mg QD × 5 days): 184.1 | AUC0-Tau/Dose Mean ([2]; females, 5 mg QD × 5 days): 2539.0 | Cmax/Dose Mean ([2]; females, 5 mg QD × 5 days): 183.6 | AUC0-Tau/Dose Mean ([2]; females, 12.5 mg × 2 doses): 1614.0 | Cmax/Dose Mean ([2]; females, 12.5 mg × 2 doses): 90.6 | AUC ([2]; male, oral, 2.5 mg): 0.178 µg·h/mL | Cmax ([2]; male, oral, 2.5 mg): 0.0085 µg/mL | Tmax ([2]; male, oral, 2.5 mg): 4.3 h | half-life ([2]; male, oral, 2.5 mg): 134 h | AUC ([2]; male, oral, 5 mg): 0.261 µg·h/mL | Cmax ([2]; male, oral, 5 mg): 0.0173 µg/mL | Tmax ([2]; male, oral, 5 mg): 4 h | half-life ([2]; male, oral, 5 mg): 119 h | AUC ([2]; male, oral, 12.5 mg): 0.398 µg·h/mL | Cmax ([2]; male, oral, 12.5 mg): 0.0209 µg/mL | Tmax ([2]; male, oral, 12.5 mg): 6.2 h | half-life ([2]; male, oral, 12.5 mg): 120 h | half-life ([2]; male, po): 118 to 134 h | AUC0-Tau/Dose Mean ([2]; males, 2.5 mg QD × 5 days): 5788.5 | Cmax/Dose Mean ([2]; males, 2.5 mg QD × 5 days): 279.2 | AUC0-Tau/Dose Mean ([2]; males, 5 mg QD × 5 days): 4152.6 | Cmax/Dose Mean ([2]; males, 5 mg QD × 5 days): 273.7 | AUC0-Tau/Dose Mean ([2]; males, 12.5 mg × 2 doses): 2357.9 | Cmax/Dose Mean ([2]; males, 12.5 mg × 2 doses): 124.2 | AEs considered by the investigator to be drug-related [3]: Fifty-eight | all other study medication-related AEs (each, one subject) [3]: 8% | subjects experiencing treatment-emergent AEs ([3]; all food conditions (10/12)): 83% | drug-related back pain ([3]; only under fed conditions): 25% | drug-related headache ([3]; only under fed conditions): 17% | Tmax ([4]; male, human, plasma, oral, 25 mg): ~3 h | absorption (Cmax and AUC) fasted versus fed ([4]; overnight fast compared with 30% or 60% fat meal, single 25 mg): lower | males reporting treatment-emergent AEs ([5]; at 25 mg (16/29)): 55% | females reporting treatment-emergent AEs ([5]; at 25 mg (31/39)): 88% | incidence of Bacteria in urine ([5]; single dose 25 mg): 19% | incidence of Blood present in urine ([5]; single dose 25 mg): 13% | incidence of Body temperature increased ([5]; single dose 25 mg): 25% | incidence of Headache ([5]; single dose 25 mg): 38% | incidence of Lymphocyte count decreased ([5]; single dose 25 mg): 31% | incidence of Monocyte count increased ([5]; single dose 25 mg): 13% | incidence of Nausea ([5]; single dose 25 mg): 13% | incidence of Neutrophil count increased ([5]; single dose 25 mg): 13% | incidence of Pharyngitis ([5]; single dose 25 mg): 13% | incidence of White blood cells (WBCs) in urine ([5]; single dose 25 mg): 19% | patients reporting treatment-emergent adverse events ([5]; single dose 25 mg, 16 patients): 75% | bioavailability ([6]; female rats, 3 mg/kg): 28.9% | bioavailability ([6]; female rats, 100 mg/kg): 6.1% | bioavailability ([6]; male rats, 3 mg/kg): 43.5% | bioavailability ([6]; male rats, 100 mg/kg): 11.7% | Vdβ/F ([6]; rats, oral administration): 40 to 80 L/kg | concentrations in genitourinary and GI tissues and coronary arteries versus plasma [7]: exceeded concentrations in plasma | anti-chlamydial activity in patients with NGU (Chlamydia; oral 25 mg): significant anti-chlamydial activity | patients in whom Chlamydia was eradicated (Chlamydia; single oral dose): > 86% | deaths, serious AEs, or discontinuations due to AEs [8]: No deaths, serious AEs, or discontinuations due to AEs | incidence of AEs considered possibly related to study drug ([8]; male): 23% | incidence of clinically significant laboratory abnormalities ([8]; male): 21%
